# From US20250313563A1, “GLYCOGEN SYNTHASE KINASE 3 INHIBITORS AND USES THEREOF” (The Broad Institute, Inc., priority 2022, published 2025)
# Read-outs that look alike come from different tables or passages of the source.
# Legend:
# [1] = target: GSK3b (GST-full length GSK3b) (Homo sapiens (Human), UniProt P49841); assay: GSK3b TR-FRET kinase assay; assay type: biochemical
# Procedure, shortened: (§1)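 In this time-resolved FRET format, kinase reactions contained 200 nM biotinylated, S645-phosphorylated glycogen synthase 631-650 peptide and either isoform-specific ATP (2 μM GSK3b, 4 μM GSK3α) or 1 mM ATP. They were quenched with EDTA after 100 min at ambient temperature. Inhibition curves gave IC50 values.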
# [2] = target: GSK3α (GST-full length GSK3α) (Homo sapiens (Human), UniProt P49840); assay: GSK3α TR-FRET kinase assay; assay type: biochemical
# Procedure, shortened: as §1
# [3] = 1 nM GSK3b, 2 μM ATP, 30 minute preincubation, geometric mean, read-out: GSK3-B TR-FRET BIOCHEMICAL (TR-FRET), GMean, IC50
# [4] = 1 nM GSK3α, 4 μM ATP, 30 minute preincubation, geometric mean, read-out: GSK3-A TR-FRET BIOCHEMICAL (TR-FRET), GMean, IC50
# [5] = read-out: GSK3-B (TR-FRET 1 mM ATP), GMean, IC50, 1 mM ATP, geometric mean
# [6] = read-out: GSK3-A (TR-FRET 1 mM ATP), GMean, IC50, 1 mM ATP, geometric mean
# [7] = 1 nM GSK3b, 2 μM ATP, 30 minute preincubation, Table 16, read-out: GSK3-B TR-FRET BIOCHEMICAL (TR-FRET)
# [8] = 1 nM GSK3α, 4 μM ATP, 30 minute preincubation, Table 16, read-out: GSK3-A TR-FRET BIOCHEMICAL (TR-FRET)
# Sequence of GSK3b (GST-full length GSK3b) (P49841 whole entry, canonical isoform): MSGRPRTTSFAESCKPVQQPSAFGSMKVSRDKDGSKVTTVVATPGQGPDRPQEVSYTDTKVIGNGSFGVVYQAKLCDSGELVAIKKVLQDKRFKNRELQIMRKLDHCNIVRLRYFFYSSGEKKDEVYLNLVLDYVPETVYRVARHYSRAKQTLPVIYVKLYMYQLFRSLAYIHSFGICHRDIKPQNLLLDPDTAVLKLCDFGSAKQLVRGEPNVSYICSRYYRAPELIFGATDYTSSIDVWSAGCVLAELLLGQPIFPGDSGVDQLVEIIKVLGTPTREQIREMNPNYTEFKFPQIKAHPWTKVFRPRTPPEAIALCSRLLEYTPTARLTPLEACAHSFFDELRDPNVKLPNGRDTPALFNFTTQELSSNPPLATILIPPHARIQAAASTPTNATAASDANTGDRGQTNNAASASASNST
# Sequence of GSK3α (GST-full length GSK3α) (P49840 whole entry): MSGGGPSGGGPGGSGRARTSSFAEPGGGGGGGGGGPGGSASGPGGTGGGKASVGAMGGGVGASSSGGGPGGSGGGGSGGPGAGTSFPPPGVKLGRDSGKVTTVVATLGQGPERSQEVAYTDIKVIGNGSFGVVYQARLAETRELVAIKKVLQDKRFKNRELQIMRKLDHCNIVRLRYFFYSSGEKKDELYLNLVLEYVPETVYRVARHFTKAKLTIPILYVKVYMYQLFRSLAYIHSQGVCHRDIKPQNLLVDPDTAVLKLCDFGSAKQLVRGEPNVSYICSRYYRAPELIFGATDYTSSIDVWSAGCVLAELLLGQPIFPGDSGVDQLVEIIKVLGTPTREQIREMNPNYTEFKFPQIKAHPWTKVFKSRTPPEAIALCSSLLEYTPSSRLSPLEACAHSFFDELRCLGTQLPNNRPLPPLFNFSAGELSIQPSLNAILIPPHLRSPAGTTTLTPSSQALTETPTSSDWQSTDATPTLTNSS
"IC50 [1, 3]","IC50 [2, 4]","IC50 [1, 5]","IC50 [2, 6]","IC50 [1, 7]","IC50 [2, 8]",SMILES
,,,,1000 to 5000 nM,100 to 1000 nM,CC[C@@]1(c2cccc(OC(C)C)c2)C2=C(CC(C)(C)CC2=O)Nc2n[nH]c(C(F)(F)F)c21 [Compound 947872]
1000 to 5000 nM,100 to 1000 nM,,,,,CCC1(c2cccc(-c3ccncc3F)c2)C2=C(CC(C)(C)NC2=O)Nc2n[nH]cc21 (stereo not drawn) [Compound 947874]
≤ 100 nM,≤ 100 nM,100 to 1000 nM,≤ 100 nM,,,CCC1(c2cccc(S(=O)(=O)C(C)C)c2)C2=C(CC(C)(C)NC2=O)Nc2n[nH]c(C)c21 (stereo not drawn) [Compound 947876]
,,,,≤ 100 nM,≤ 100 nM,Cc1csc(S(=O)(=O)N2CCC3(CC2)C2=C(CC(C)(C)CC2=O)Nc2n[nH]cc23)n1 [Compound 947897]
,,,,100 to 1000 nM,≤ 100 nM,Cn1cc(S(=O)(=O)N2CCC3(CC2)C2=C(CC(C)(C)CC2=O)Nc2n[nH]cc23)nn1 [Compound 947898]
,,,,≤ 100 nM,≤ 100 nM,Cc1ncc(S(=O)(=O)N2CCC3(CC2)C2=C(CC(C)(C)CC2=O)Nc2n[nH]cc23)s1 [Compound 947899]
,,,,≤ 100 nM,≤ 100 nM,CC1(C)CC(=O)C2=C(C1)Nc1n[nH]cc1C21CCN(S(=O)(=O)c2ccc3c(c2)OCCO3)CC1 [Compound 947900]
,,,,≤ 100 nM,≤ 100 nM,CC1(C)CC(=O)C2=C(C1)Nc1n[nH]cc1C21CCN(S(=O)(=O)c2cccc3ccncc23)CC1 [Compound 947901]
,,,,≤ 100 nM,≤ 100 nM,CC1(C)CC(=O)C2=C(C1)Nc1n[nH]cc1C21CCN(S(=O)(=O)c2ccc(C(F)(F)F)cn2)CC1 [Compound 947902]
,,,,≤ 100 nM,≤ 100 nM,CC1(C)CC(=O)C2=C(C1)Nc1n[nH]cc1C21CCN(S(=O)(=O)c2cnn(CCF)c2)CC1 [Compound 947903]
,,,,≤ 100 nM,≤ 100 nM,CC1(C)CC(=O)C2=C(C1)Nc1n[nH]cc1C21CCN(S(=O)(=O)c2cnn(-c3ccccc3)c2)CC1 [Compound 947904]
100 to 1000 nM,≤ 100 nM,,,,,CCC1(c2cccc(-c3ccnn3C)c2)C2=C(CC(C)(COC)NC2=O)Nc2n[nH]cc21 (stereo not drawn) [Compound 947905]
> 5000 nM,1000 to 5000 nM,,,,,CCC1(c2cccc(-c3ccnn3C)c2)C2=C(CC(C)(COC)NC2=O)Nc2n[nH]cc21 (stereo not drawn) [Compound 947907]

# The next lines start with the compound.
SMILES,"IC50 [1, 3]","IC50 [2, 4]","IC50 [1, 5]","IC50 [2, 6]","IC50 [1, 7]","IC50 [2, 8]"
CCC1(c2cccc(-c3ccnc(C)c3)c2)C2=C(CC(C)(C)NC2=O)Nc2n[nH]c(C(F)(F)F)c21 (stereo not drawn) [Compound 947858],≤ 100 nM,≤ 100 nM,,,,
CCC1(c2cccc(S(=O)(=O)C3CC3)c2)C2=C(CC(C)(C)NC2=O)Nc2n[nH]c(C(F)(F)F)c21 (stereo not drawn) [Compound 947859],≤ 100 nM,≤ 100 nM,≤ 100 nM,≤ 100 nM,,
CCC1(c2cccc(N3CCCC3)c2)C2=C(CC(C)(C)NC2=O)Nc2n[nH]c(C(F)(F)F)c21 (stereo not drawn) [Compound 947860],≤ 100 nM,≤ 100 nM,100 to 1000 nM,≤ 100 nM,,
CCC1(c2cccc(-c3ccnc4c3CCC4)c2)C2=C(CC(C)(C)NC2=O)Nc2n[nH]c(C(F)(F)F)c21 (stereo not drawn) [Compound 947862],≤ 100 nM,≤ 100 nM,100 to 1000 nM,≤ 100 nM,,
CCC1(c2cccc(N3CCOCC3)c2)C2=C(CC(C)(C)NC2=O)Nc2n[nH]c(C(F)(F)F)c21 (stereo not drawn) [Compound 947863],≤ 100 nM,≤ 100 nM,,,,
CCC1(c2cccc(C(F)F)c2)C2=C(CC(C)(C)NC2=O)Nc2n[nH]cc21 (stereo not drawn) [Compound 947864],100 to 1000 nM,≤ 100 nM,,,,
CCC1(c2cccc(-c3ccncc3F)c2)C2=C(CC(C)(C)NC2=O)Nc2n[nH]c(C(F)(F)F)c21 (stereo not drawn) [Compound 947866],≤ 100 nM,≤ 100 nM,,,,
CCC1(c2cccc(OC(C)C)c2)C2=C(CC(C)(C)CC2=O)Nc2[nH]nc(C(F)(F)F)c21 (stereo not drawn) [Compound 947867],,,≤ 100 nM,≤ 100 nM,≤ 100 nM,≤ 100 nM
CC[C@]1(c2cccc(-c3ccncc3F)c2)C2=C(CC(C)(C)NC2=O)Nc2n[nH]cc21 [Compound 947869],≤ 100 nM,≤ 100 nM,1000 to 5000 nM,≤ 100 nM,,
CCC1(c2cccc(S(=O)(=O)C(C)C)c2)C2=C(CC(C)(C)NC2=O)Nc2[nH]nc(C)c21 (stereo not drawn) [Compound 947870],100 to 1000 nM,≤ 100 nM,,,,
CC[C@]1(c2cccc(-c3cnn(C)c3)c2)C2=C(CC(C)(C)NC2=O)Nc2n[nH]c(C(F)(F)F)c21 [Compound 947871],100 to 1000 nM,≤ 100 nM,,,,
